Laboratory results published in US20070027181A1, “Benzylisoquinoline derivative- or bisbenzylisoquinoline derivative-containing psychotropic agent, analgesic and/or antiphlogistic, and health food” (EDUCATION CENTER OF TRADITIONAL, priority 2004, published 2007).

Legend:
[1] = system: mice; test: locomotor activity (ultromotivity) test, evaluation of sedative action; format: in vivo, Male ICR mice
Experimental: (§1) In the following Examples, all extracts and drugs used were dissolved in physiological saline before use for i.p. administration and the dose was 0.1 ml of physiological saline per 10 g of mouse body weight in either case. All extracts and drugs were suspended in physiological saline containing 1% sodium carboxymethylcellulose before use for oral administration and the dose was 0.1 ml of 1% sodium carboxymethylcellulose-containing physiological saline suspension per 10 g of mouse body weight in either case. Male ICR mice (Japan SLC) having a body weight of 25 to 30 g were used in the tests below unless otherwise stated, and were fed in advance at a room temperature of 23±1° C. and a relative humidity of 55±5% in the environment of a cycle of 12-hour-light from 7 a.m. to 7 p.m. and 12-hour-dark from 7 p.m. to 7 a.m. for 3 to 5 days. The mice were allowed to have water and feed freely.
Twenty five mice were grouped into five groups each having five mice, to which 5 mg/kg of N-methylcoclaurine hydrochloride (treatment group 1-1: i.p. administration), 50 mg/kg of neferine hydrochloride (treatment group 1-2: oral administration, and treatment group 1-3: i.p. administration), 50 mg/kg of liensinine hydrochloride (treatment group 1-4: oral administration), or physiological saline (negative control group 1-1: i.p. administration) was administered. The ultromotivity of the mice was analyzed by using a locomotor activity monitoring system (NS-AS01, Neuroscience Inc.). The ultromotivity measurements were performed at an interval of 5 minutes for 60 minutes, and the ultromotivity was judged from the count at each measuring time.
Similar tests were conducted by i.p. administration of 25 mg/kg of N-norarmepavine (treatment group 1-5, n=6), 25 mg/kg of O,O-dimethylcoclaurine (treatment group 1-6, n=5), 10 mg and 25 mg/kg of armepavine (respectively, treatment group 1-7, n=6, and treatment group 1-8, n=6), 10 mg and 25 mg/kg of O-methylarmepavine (respectively, treatment group 1-9, n=6, and treatment group 1-10, n=6), and physiological saline (negative control group 1-2, n=5). The ultromotivity measurements were performed at an interval of five minutes for 60 minutes, and the ultromotivity was subjected to a significant difference test (Tukey's method) by using the counts at respective measuring times.
Tests were performed by using mice administered intraperitoneally with 25 mg/kg of neferine hydrochloride (treatment group 7-1, n=6), 25 mg/kg of liensinine hydrochloride (treatment group 7-2, n=6), and physiological saline (negative control group, n=6) as well as 5 mg/kg of diazepam (positive control group, n=6) and a rotarod equipment (Ugo Basile, Italy) and a locomotor activity monitoring system (NS-AS01, Neuroscience Inc.). The rotarod test was performed by placing a mouse on a rod having a diameter of 4 cm rotating at a speed of 8 rpm 15 minutes after drug administration and observing whether the mouse can stay on the rod without falling for three minutes. The individuals that had fallen from the rotating rod in the period of 3 minutes were judged that they are with motor coordination disorder. […] In addition, the ultromotivity measurements were performed at an interval of five minutes for 60 minutes, and the ultromotivity results were subjected to a significant difference test (Tukey's method) by using the counts at respective measuring times.

[2] = system: mice; test: forced swimming test (antidepressive action); format: in vivo, Male ICR mice; settings: 100 mg/kg i.p., 6-minute period
Experimental: as §1
Forced swimming tests were conducted according to the method of Porsolt et al. A mouse was placed in a cylindrical glass water tank of 10 cm in diameter and 25 cm in height (water temperature: 23° C.) filled with water to a depth of 10 cm and forced to swim therein. […] Each mouse was forced to swim 15 and 30 minutes after administration, and the immobile times during the 6-minute periods immediately after forced swimming were determined. […]

[3] = system: mice; test: tail flick test; format: in vivo, Male ICR mice; settings: 15 minutes after administration, cut off time 10 seconds
Experimental: as §1, with “The mice were allowed to have water and feed freely.” left out
A tail flick test is a method in which, when radiant heat stimulation is locally added to a part of a tail 1 to 2 cm away from the tail root part of a mouse, a reaction of raising a tail as a provisional pain reaction is manifested, and anti-invasion action is determined by utilizing this reaction.
Seven to nine mice per group were used. […] The reaction that a mouse raised a tail upon addition of radiant heat was regarded as a provisional pain reaction, and a time until its manifestation (latency time) was measured. […]

[4] = system: mice; settings: Ito et al., abstract of the Japanese Society of Pharmacognosy; cited from earlier work

For `COc1ccc(C[C@@H]2c3cc(Oc4cc(C[C@@H]5c6cc(OC)c(OC)cc6CCN5C)ccc4O)c(OC)cc3CCN2C)cc1` [neferine], the “Significant difference test of ultromotivity” value ([1]; 25 mg/kg i.p., Tukey's method, 60 minutes) was “P < 0.01”, the “Ultromotivity (count) 30 minutes” value ([1]; 50 mg/kg i.p.) was 500 count and the “Ultromotivity (count) 60 minutes” value ([1]; 50 mg/kg i.p., 60 minutes) was 760 count. For the same compound, the “Ultromotivity (count) 30 minutes” value ([1]; 50 mg/kg oral) was 500 count, the “Ultromotivity (count) 60 minutes” value ([1]; 50 mg/kg oral, 60 minutes) was 750 count and the “Immobile time (sec) After 15 minutes” value ([2]; 15 minutes after administration) was 165 s. For the same compound, the “Immobile time (sec) After 30 minutes” value ([2]; 30 minutes after administration) was 170 s, the “% MPE” value ([3]; 50 mg/kg i.p.) was 5.0 ± 2.30% and the “% MPE” value ([3]; 100 mg/kg i.p.) was 15.6 ± 2.89 %. The locomotor activity-inhibiting action [4] was “exhibited a locomotor activity-inhibiting action”.
